From ChEMBL document CHEMBL1201862, “PubChem BioAssay data set” (2004)
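Interpolation was linear, between the two tested concentrations surrounding the appropriate level; five concentrations were tested over 48 hours in 96-well plates. GI50 = concentration required for 50% inhibition of growth.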 The source made the active and inactive calls. Rule as the data show it: active = GI50 up to about 1.1 µM and inactive = higher.

How the values were obtained:
Assay in all cases: NCI tumour cell line growth inhibition, 48 h
NCI-H226 = test system: NCI-H226
OVCAR-3 = test system: OVCAR-3
HOP-62 = test system: HOP-62
M14 = test system: M14
K562 = test system: K562
KM-20L2 = test system: KM-20L2
XF498 = test system: XF498
UACC-62 = test system: UACC-62
HCT-116 = test system: HCT-116
Malme-3M = test system: Malme-3M
M19-MEL = test system: M19-MEL
EKVX = test system: EKVX
SK-MEL-5 = test system: SK-MEL-5
IGROV-1 = test system: IGROV-1
SNB-78 = test system: SNB-78
RPMI-8226 = test system: RPMI-8226
TK-10 = test system: TK-10
HOP-92 = test system: HOP-92
HCC 2998 = test system: HCC 2998
MDA-MB-231 = test system: MDA-MB-231

O=C1CCC2(c3ccc(F)cc3)Nc3cc(Cl)ccc3N12 (centres undefined)
GI50 (NCI-H226): 38.5 µM (inactive)
GI50 (OVCAR-3): 86.5 µM (inactive)
GI50 (HOP-62): > 100 µM (inactive)
GI50 (M14): > 100 µM (inactive)
GI50 (K562): 44.6 µM (inactive)
GI50 (KM-20L2): > 100 µM (inactive)
GI50 (XF498): 20.1 µM (inactive)
GI50 (UACC-62): 66.1 µM (inactive)
GI50 (HCT-116): 67.8 µM (inactive)
GI50 (Malme-3M): 59.7 µM (inactive)
GI50 (M19-MEL): > 100 µM (inactive)
GI50 (EKVX): > 100 µM (inactive)
GI50 (SK-MEL-5): 45.5 µM (inactive)
GI50 (IGROV-1): > 100 µM (inactive)
GI50 (SNB-78): > 100 µM (inactive)
GI50 (RPMI-8226): 76.7 µM (inactive)

O=c1cc2n(c(=O)[nH]1)C1OC(C(O)C1O)[C@H]2CCO (some centres undefined)
GI50 (NCI-H226): > 100 µM (inactive)
GI50 (HOP-62): > 100 µM (inactive)
GI50 (K562): > 100 µM (inactive)
GI50 (KM-20L2): > 100 µM (inactive)
GI50 (UACC-62): > 100 µM (inactive)
GI50 (Malme-3M): > 100 µM (inactive)
GI50 (TK-10): > 100 µM (inactive)
GI50 (M19-MEL): > 100 µM (inactive)
GI50 (EKVX): > 100 µM (inactive)
GI50 (SK-MEL-5): > 100 µM (inactive)
GI50 (IGROV-1): > 100 µM (inactive)
GI50 (HOP-92): > 100 µM (inactive)
GI50 (SNB-78): > 100 µM (inactive)

CCC1CCC2CCCC(C)N12 (centres undefined)
GI50 (NCI-H226): > 100 µM (inactive)
GI50 (OVCAR-3): > 100 µM (inactive)
GI50 (HOP-62): > 100 µM (inactive)
GI50 (M14): > 100 µM (inactive)
GI50 (K562): > 100 µM (inactive)
GI50 (KM-20L2): > 100 µM (inactive)
GI50 (XF498): > 100 µM (inactive)
GI50 (UACC-62): > 100 µM (inactive)
GI50 (HCT-116): > 100 µM (inactive)
GI50 (Malme-3M): > 100 µM (inactive)
GI50 (TK-10): > 100 µM (inactive)
GI50 (M19-MEL): > 100 µM (inactive)
GI50 (EKVX): > 100 µM (inactive)
GI50 (IGROV-1): > 100 µM (inactive)
GI50 (HCC 2998): > 100 µM (inactive)
GI50 (HOP-92): > 100 µM (inactive)
GI50 (RPMI-8226): > 100 µM (inactive)

CC(=O)NNc1ncc(C(=O)/C=C/c2ccccc2C)s1
GI50 (OVCAR-3): > 100 µM (inactive)
GI50 (HOP-62): > 100 µM (inactive)
GI50 (K562): > 100 µM (inactive)
GI50 (KM-20L2): > 100 µM (inactive)
GI50 (UACC-62): > 100 µM (inactive)
GI50 (Malme-3M): > 100 µM (inactive)
GI50 (TK-10): > 100 µM (inactive)
GI50 (M19-MEL): > 100 µM (inactive)
GI50 (EKVX): > 100 µM (inactive)
GI50 (SK-MEL-5): > 100 µM (inactive)
GI50 (IGROV-1): > 100 µM (inactive)
GI50 (HCC 2998): > 100 µM (inactive)
GI50 (HOP-92): > 100 µM (inactive)
GI50 (SNB-78): > 100 µM (inactive)
GI50 (RPMI-8226): > 100 µM (inactive)

C=C1C(=O)OC2CC1C(OC(=O)/C=C/c1ccccc1)C/C(C)=C/CC/C(C)=C/CCC2(C)O (centres undefined)
GI50 (NCI-H226): 1.64 µM (inactive)
GI50 (OVCAR-3): 1.52 µM (inactive)
GI50 (HOP-62): 1.8 µM (inactive)
GI50 (M14): 1.64 µM (inactive)
GI50 (K562): 0.906 µM (active)
GI50 (UACC-62): 1.95 µM (inactive)
GI50 (HCT-116): 1.24 µM (inactive)
GI50 (Malme-3M): 2 µM (inactive)
GI50 (TK-10): 1.65 µM (inactive)
GI50 (MDA-MB-231): 1.66 µM (inactive)
GI50 (EKVX): 1.81 µM (inactive)
GI50 (SK-MEL-5): 1.85 µM (inactive)
GI50 (IGROV-1): 1.56 µM (inactive)
GI50 (HCC 2998): 1.58 µM (inactive)
GI50 (HOP-92): 1.52 µM (inactive)
GI50 (RPMI-8226): 0.433 µM (active)

Nc1cccc2c1-c1c(cccc1[N+](=O)[O-])C2=O
GI50 (NCI-H226): > 100 µM (inactive)
GI50 (OVCAR-3): > 100 µM (inactive)
GI50 (HOP-62): > 100 µM (inactive)
GI50 (M14): > 100 µM (inactive)
GI50 (K562): > 100 µM (inactive)
GI50 (KM-20L2): > 100 µM (inactive)
GI50 (UACC-62): > 100 µM (inactive)
GI50 (HCT-116): > 100 µM (inactive)
GI50 (Malme-3M): > 100 µM (inactive)
GI50 (TK-10): > 100 µM (inactive)
GI50 (M19-MEL): > 100 µM (inactive)
GI50 (EKVX): > 100 µM (inactive)
GI50 (SK-MEL-5): > 100 µM (inactive)
GI50 (IGROV-1): > 100 µM (inactive)
GI50 (HCC 2998): > 100 µM (inactive)
GI50 (HOP-92): > 100 µM (inactive)
GI50 (SNB-78): > 100 µM (inactive)
GI50 (RPMI-8226): > 100 µM (inactive)

CC(C)(C)OC(=O)N(O)CCCn1cnc2c(N)ncnc21
GI50 (NCI-H226): > 100 µM (inactive)
GI50 (OVCAR-3): > 100 µM (inactive)
GI50 (HOP-62): > 100 µM (inactive)
GI50 (M14): > 100 µM (inactive)
GI50 (K562): > 100 µM (inactive)
GI50 (UACC-62): > 100 µM (inactive)
GI50 (HCT-116): > 100 µM (inactive)
GI50 (Malme-3M): > 100 µM (inactive)
GI50 (TK-10): > 100 µM (inactive)
GI50 (MDA-MB-231): > 100 µM (inactive)
GI50 (EKVX): > 100 µM (inactive)
GI50 (SK-MEL-5): > 100 µM (inactive)
GI50 (IGROV-1): > 100 µM (inactive)
GI50 (HCC 2998): > 100 µM (inactive)
GI50 (HOP-92): > 100 µM (inactive)
GI50 (RPMI-8226): > 100 µM (inactive)

N#CC(/C(=N/NC(N)=S)C(=O)Nc1cccc(Cl)c1)c1ccccc1 (centres undefined)
GI50 (NCI-H226): > 100 µM (inactive)
GI50 (OVCAR-3): > 100 µM (inactive)
GI50 (HOP-62): > 100 µM (inactive)
GI50 (M14): > 100 µM (inactive)
GI50 (K562): > 100 µM (inactive)
GI50 (KM-20L2): > 100 µM (inactive)
GI50 (XF498): > 100 µM (inactive)
GI50 (UACC-62): > 100 µM (inactive)
GI50 (HCT-116): > 100 µM (inactive)
GI50 (Malme-3M): > 100 µM (inactive)
GI50 (TK-10): > 100 µM (inactive)
GI50 (M19-MEL): > 100 µM (inactive)
GI50 (EKVX): > 100 µM (inactive)
GI50 (SK-MEL-5): > 100 µM (inactive)
GI50 (IGROV-1): > 100 µM (inactive)
GI50 (HCC 2998): > 100 µM (inactive)
GI50 (HOP-92): > 100 µM (inactive)
GI50 (RPMI-8226): > 100 µM (inactive)
